{"source": "patent US20170349879A1", "about": "“METHOD FOR CULTURING NORMAL CELLS AND ODONTOMA CELLS CONTAINED IN ORAL TISSUE” (CHIBA UNIVERSITY, priority 2014, published 2017)", "format_in_all_cases": "cell-based, human", "key": {"[1]": {"system": "salivary gland cells", "assay": "Karyotype analysis (Q band technique) of primary cultured salivary gland cells", "details": "primary cultured labial gland cells cultured in inhibitor-containing medium; FIG. 5", "experimental": "Primary cultured salivary gland cells were cultured in a medium containing a Rock inhibitor and analyzed for the presence or absence of their genetic defect(s) by karyotype analysis. The karyotype analysis test was conducted by Q band technique."}, "[2]": {"system": "vascular endothelial cells", "assay": "Cell culture of vascular endothelial cells using a Rho kinase inhibitor (cell morphology)", "details": "inhibitor-containing medium (10 μM, EGM-2MV); passage 8 with inhibitor vs passage 0 without; FIG. 15", "experimental": "Vascular Endothelial Cells (i) Patient-derived cells for use as a source material were taken in a required amount as described above. (ii) The cells were washed three times with phosphate-buffered physiological saline (PBS) (supplemented with 10 units/ml of penicillin and 100 μg/ml of streptomycin: Sigma-Aldrich). (iii) The cells were cut into small pieces with sterilized iris scissors and a surgical knife (No. 11). (iv) The cells were added to collagenase (032-10534: Wako) and shaken at 37° C. for 60 minutes. (v) The cells were diluted with an equal volume of fetal bovine serum (Nichirei Bioscience Inc., Japan) and centrifuged (at 1000 rpm for 10 minutes), and then centrifuged (at 1000 rpm for 5 minutes) three times with PBS, followed by addition of MACS buffer and centrifugation (at 1000 rpm for 5 minutes). (vi) Magnetic beads (Dynabeads CD31 Endotherial cell, 11155D: Invitrogen) were used to separate the cells. (vii) The cells were mixed with EGM-2MV (Lonza) (supplemented with 20% fetal bovine serum, 10 units/ml of penicillin, 100 μg/ml of streptomycin, and 10 μM of the Rock kinase inhibitor) and then seeded into fibronectin-coated cell culture dishes (IWAKI). (viii) The cells were washed with PBS once every three days to replace the above medium. (ix) The cultured cells were subcultured at 80% confluency. […]"}, "[3]": {"system": "odontoma cells", "assay": "Cell culture of odontoma cells using a Rho kinase inhibitor (cell morphology)", "details": "inhibitor-containing medium (10 μM); passage 5 with inhibitor vs passage 0 without; FIG. 11", "experimental": "Odontoma cells, oral mucosal epithelial cells, fibroblasts, and cancer-associated fibroblasts (CAFs) (i) Patient-derived cells for use as a source material were taken in a required amount as described above. (ii) The cells were washed three times with phosphate-buffered physiological saline (PBS) (supplemented with 10 units/ml of penicillin and 100 μg/ml of streptomycin: Sigma-Aldrich). (iii) The cells were cut into small pieces with sterilized iris scissors and a surgical knife (No. 11). (iv) After addition of trypsin (TrypLE Select Enzyme, Gibco, Code No. A12177-01), the cells were shaken at 37° C. for 30 minutes. (v) The cells were mixed with Dulbecco's modified Eagle medium (DMEM: Sigma-Aldrich) (supplemented with 10% fetal bovine serum: Nichirei Bioscience Inc., Japan, 10 units/ml of penicillin and 100 μg/ml of streptomycin), and centrifugation (at 1000 rpm for 5 minutes) was repeated three times. (vi) The cells were mixed with DMEM (supplemented with 10% fetal bovine serum, 10 units/ml of penicillin, 100 μg/ml of streptomycin, 10 μM of the Rock kinase inhibitor and 0.3 μM of L-ascorbic acid 2-phosphate: Sigma-Aldrich) (DMEM+) and then seeded into collagen type I-coated cell culture dishes (IWAKI). (vii) The cells were washed with PBS once every three days to replace the above medium. (viii) The cultured cells were subcultured at 80% confluency. […]"}, "[4]": {"system": "caspase-3", "assay": "Western blotting of caspase-3 (apoptosis) in salivary gland cells", "details": "salivary gland cells in Rock inhibitor-containing medium; relative to α-tubulin; FIG. 6A", "experimental": "Primary cultured salivary gland cells were cultured in a medium containing a Rock inhibitor and analyzed for their proliferation by Western blotting of proliferating cell nuclear antigen (PCNA: Santa Cruz) and for their apoptosis by Western blotting of caspase-3 (CST). For analysis of their immortalization, the expression of telomerase reverse transcriptase (TERT) was analyzed by quantitative RT-PCR assay.\nThe protein levels of PCNA and caspase-3 were measured by Western blotting. In addition, α-tubulin was used as an endogenous control.\n(i) A protein extract was electrophoresed on a 4% to 12% polyacrylamide gel (Invitrogen).\n(ii) The proteins were transferred onto a nitrocellulose membrane (Invitrogen).\n(iii) The membrane was washed with Tris-buffered saline containing 0.1% Tween-20 (WaKo) (TBST), and then blocked with Blocking One (Nacalai Tesque, Inc., Japan) for 30 minutes. […]\n(vi) The membrane was reacted at room temperature for 1 hour with horseradish peroxidase (HRP)-conjugated secondary antibody (Promega) and then treated with Super Signal West Pico Chemiluminescent substrate (Thermo) to develop signals for visualization purposes. The intensity of signals was quantified with a CS analyzer (ATTO) and expressed as a relative value in comparison with the protein level of α-tubulin measured as a control."}, "[5]": {"system": "amylase", "assay": "Protein expression analysis of amylase by immunocytological fluorescent staining", "details": "salivary gland cells repeatedly subcultured in Rock inhibitor-containing medium; FIG. 3", "experimental": "(i) Salivary gland cells cultured on glass slides were fixed by being treated for 10 minutes with 4% paraformaldehyde (WaKo). (ii) The fixed cells were washed three times with Tris-buffered saline (TBS: Sigma-Aldrich). (iii) The fixed cells were permeated with 0.5% Triton X-100 (WaKo) for 15 minutes. (iv) The fixed cells were reacted for 30 minutes with TBS containing 1% bovine serum albumin (Sigma-Aldrich). (v) The fixed cells were washed three times with TBS. (vi) A primary antibody (anti-goat amylase (Santa Cruz)) was mixed with TBS and reacted at a concentration of 1:200 at 4° C. for 16 hours. (vii) The cells were washed three times with TBS. (viii) Anti-goat Alexa Floor 647 (Millipore) was mixed with phosphate-buffered physiological saline and reacted at a concentration of 1:200 at room temperature for 1 hour. (ix) The cells were washed three times with TBS. (x) The cells were mounted with DAPI-containing mounting medium (DaKo). (xi) The cells were observed under a confocal microscope (FV10i-LIV: OLYMPUS)."}}, "data": [{"smiles": "CC(N)[C@H]1CC[C@H](C(=O)Nc2ccncc2)CC1", "note": "(stereo partly drawn) [Rock inhibitor, (R)-(+)-trans-N-(4-pyridyl)-4-(1-aminoethyl)-cyclohexanecarboxamide]", "values": [{"measurement": "chromosomal/genetic defect(s) in karyotype analysis", "setting": "[1]", "result": "No genetic defect was observed"}, {"measurement": "cell morphology of vascular endothelial cells on repeated subculture", "setting": "[2]", "result": "maintain their cell morphology even when repeatedly subcultured"}, {"measurement": "cell morphology of odontoma cells on repeated subculture", "setting": "[3]", "result": "maintain their cell morphology even when repeatedly subcultured"}, {"measurement": "caspase-3 expression", "setting": "[4]", "result": "no difference was observed"}, {"measurement": "protein expression of amylase", "setting": "[5]", "result": "significantly high"}]}]}
